Reference: patent US20220110886A1, “OPTIMIZATION OF SCENT OR FLAVOR COMPOSITIONS” (Aromyx Corporation, priority 2019, published 2022)

Key:
OR1G1 = biological target: T1, OR1G1 (Homo sapiens, UniProt P47890); test: Olfactory receptor cAMP signaling in transfected HEK293T cells exposed to menthol; assay type: cell-based; conditions: menthol 1 nM to 1 mM, cAMP production
T1 construct: expressed in transfected cells; host or cells: HEK293T
T1 sequence (P47890 1-313): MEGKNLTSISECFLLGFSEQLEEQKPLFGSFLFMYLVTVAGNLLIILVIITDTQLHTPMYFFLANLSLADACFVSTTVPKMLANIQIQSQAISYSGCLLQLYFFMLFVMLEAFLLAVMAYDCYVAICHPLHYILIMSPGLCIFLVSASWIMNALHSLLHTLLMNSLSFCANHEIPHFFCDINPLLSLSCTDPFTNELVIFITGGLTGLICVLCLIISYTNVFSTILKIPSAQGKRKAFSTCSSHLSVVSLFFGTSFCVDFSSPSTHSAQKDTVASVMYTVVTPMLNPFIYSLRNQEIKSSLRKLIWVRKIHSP
Description: (§1) When creating an age-related flavor profile for menthol, identification of the olfactory receptors that respond to menthol may be accomplished by transfecting human olfactory receptor cDNA sequences in HEK293T co-expressing accessory factors for odorant receptor expression (see, e.g., Saito, H., et al., Cell 119:679-691 (2004)). Transfected cells may then be exposed to serial dilutions of menthol from 1 nM to 1 mM in growth medium, and receptor signaling may be measured by cAMP production in the cell using a commercial assay.
(§2) Next, positive olfactory receptors may be identified by increased signaling when exposed to at least one menthol concentration compared to control cells that have not been transfected. In each case, an EC50 is defined for the receptor versus menthol. Olfactory receptors OR1G1, 8K3, 2W1, 2J2, 11H7P and 51E1 have been identified by this method as menthol-sensitive olfactory receptors.

OR11H7P = biological target: T2, OR11H7P (Homo sapiens, UniProt Q8NGC8); test: as above; assay type: cell-based; conditions: 11H7P, menthol 1 nM to 1 mM, cAMP production
T2 construct: expressed in transfected cells; host or cells: HEK293T
T2 sequence (Q8NGC8 1-314): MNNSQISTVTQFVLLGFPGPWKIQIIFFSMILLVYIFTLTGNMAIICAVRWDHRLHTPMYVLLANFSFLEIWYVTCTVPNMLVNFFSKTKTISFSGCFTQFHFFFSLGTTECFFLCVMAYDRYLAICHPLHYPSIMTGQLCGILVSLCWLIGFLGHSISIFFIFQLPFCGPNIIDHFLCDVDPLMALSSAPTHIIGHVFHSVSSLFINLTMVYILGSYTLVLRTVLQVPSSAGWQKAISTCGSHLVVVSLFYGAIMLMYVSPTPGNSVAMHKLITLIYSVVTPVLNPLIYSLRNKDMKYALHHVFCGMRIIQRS
Description: as §1, §2

OR2W1 = biological target: T3, OR2W1 (Homo sapiens, UniProt Q9Y3N9); test: as above; assay type: cell-based; conditions: 2W1, menthol 1 nM to 1 mM, cAMP production
T3 construct: expressed in transfected cells; host or cells: HEK293T
T3 sequence (Q9Y3N9 1-320): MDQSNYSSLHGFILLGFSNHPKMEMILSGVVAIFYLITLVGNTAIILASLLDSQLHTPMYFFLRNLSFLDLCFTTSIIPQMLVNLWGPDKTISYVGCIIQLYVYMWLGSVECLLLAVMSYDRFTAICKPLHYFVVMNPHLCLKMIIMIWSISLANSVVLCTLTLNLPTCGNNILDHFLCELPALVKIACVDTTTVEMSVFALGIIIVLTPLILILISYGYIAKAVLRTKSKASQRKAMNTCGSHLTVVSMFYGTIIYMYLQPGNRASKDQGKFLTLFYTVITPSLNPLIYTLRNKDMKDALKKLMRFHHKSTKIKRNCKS
Description: as §1, §2

OR2J2 = biological target: T4, OR2J2 (Homo sapiens, UniProt O76002); test: as above; assay type: cell-based; conditions: 2J2, menthol 1 nM to 1 mM, cAMP production
T4 construct: expressed in transfected cells; host or cells: HEK293T
T4 sequence (O76002 1-312): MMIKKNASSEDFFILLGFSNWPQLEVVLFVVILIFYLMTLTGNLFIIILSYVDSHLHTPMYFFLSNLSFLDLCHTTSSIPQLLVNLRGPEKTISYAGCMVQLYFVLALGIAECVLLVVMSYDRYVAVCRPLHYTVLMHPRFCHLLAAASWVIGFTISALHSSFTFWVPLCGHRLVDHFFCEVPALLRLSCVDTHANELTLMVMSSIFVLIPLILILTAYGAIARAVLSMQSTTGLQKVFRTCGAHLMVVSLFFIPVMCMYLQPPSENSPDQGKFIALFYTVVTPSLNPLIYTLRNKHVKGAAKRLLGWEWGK
Description: as §1, §2

OR51E1 = biological target: T5, OR51E1 (Homo sapiens, UniProt Q8TCB6); test: as above; assay type: cell-based; conditions: 51E1, menthol 1 nM to 1 mM, cAMP production
T5 construct: expressed in transfected cells; host or cells: HEK293T
T5 sequence (Q8TCB6 1-318): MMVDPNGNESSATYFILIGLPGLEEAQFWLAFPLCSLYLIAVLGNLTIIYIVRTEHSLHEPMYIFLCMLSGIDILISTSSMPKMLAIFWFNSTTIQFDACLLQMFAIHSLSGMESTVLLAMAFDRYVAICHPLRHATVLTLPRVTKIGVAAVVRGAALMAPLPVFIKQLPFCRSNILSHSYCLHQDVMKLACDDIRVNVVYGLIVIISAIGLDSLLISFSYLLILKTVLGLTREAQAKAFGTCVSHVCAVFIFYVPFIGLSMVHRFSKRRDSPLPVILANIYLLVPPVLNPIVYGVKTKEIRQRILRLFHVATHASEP
Description: as §1, §2

OR8K3 = biological target: T6, OR8K3 (Homo sapiens, UniProt Q8NH51); test: as above; assay type: cell-based; conditions: 8K3, menthol 1 nM to 1 mM, cAMP production
T6 construct: expressed in transfected cells; host or cells: HEK293T
T6 sequence (Q8NH51 1-312): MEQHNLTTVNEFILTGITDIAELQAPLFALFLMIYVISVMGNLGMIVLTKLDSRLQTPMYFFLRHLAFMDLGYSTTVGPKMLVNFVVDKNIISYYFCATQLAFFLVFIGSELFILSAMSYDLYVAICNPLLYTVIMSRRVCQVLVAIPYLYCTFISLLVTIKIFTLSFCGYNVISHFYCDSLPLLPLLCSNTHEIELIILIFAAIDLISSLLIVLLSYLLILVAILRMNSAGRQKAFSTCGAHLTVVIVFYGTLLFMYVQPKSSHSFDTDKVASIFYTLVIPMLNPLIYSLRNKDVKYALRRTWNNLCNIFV
Description: as §1, §2

[1] = adults relative to children; cited from earlier work

Compound: CC1CCC(C(C)C)C(O)C1 (stereo not shown) [menthol]
- receptor identified as menthol-sensitive (increased signaling vs non-transfected control cells) (OR1G1): menthol-sensitive
- receptor identified as menthol-sensitive (increased signaling vs non-transfected control cells) (OR11H7P): menthol-sensitive
- receptor identified as menthol-sensitive (increased signaling vs non-transfected control cells) (OR2W1): menthol-sensitive
- receptor identified as menthol-sensitive (increased signaling vs non-transfected control cells) (OR2J2): menthol-sensitive
- receptor identified as menthol-sensitive (increased signaling vs non-transfected control cells) (OR51E1): menthol-sensitive
- receptor identified as menthol-sensitive (increased signaling vs non-transfected control cells) (OR8K3): menthol-sensitive
- menthol concentration adults require to perceive the same level of intensity as children [1]: approximately two
